# Laboratory results taken from patent publication US20250346593A1, “IMIDAZO(1,2-1)PYRIDINE DERIVATIVES AS RIPK2 INHIBITORS” (Interline Therapeutics, Inc., priority 2022, published 2025).
# Read-outs that look alike come from different tables or passages of the source.
# Experiments:
# [1] = biological target: GST-RIPK2 fusion protein (human RIPK2 amino acids 1-310) (Homo sapiens (Human), UniProt O43353); assay: RIPK2 binding competition assay (TR-FRET, Tracer 199)
# [2] = tested on: NF-κB pathway (SEAP) in THP1-Dual cells; assay: THP-1 Dual cell SEAP assay (L18-MDP stimulated); type: cell-based; conditions: Homo sapiens, THP1-Dual, read-out: NFkB THP1 IC50
# [3] = read-out: RIPK2 IC50, RIPK2 binding competition assay
# GST-RIPK2 fusion protein (human RIPK2 amino acids 1-310), sequence (O43353 1-310): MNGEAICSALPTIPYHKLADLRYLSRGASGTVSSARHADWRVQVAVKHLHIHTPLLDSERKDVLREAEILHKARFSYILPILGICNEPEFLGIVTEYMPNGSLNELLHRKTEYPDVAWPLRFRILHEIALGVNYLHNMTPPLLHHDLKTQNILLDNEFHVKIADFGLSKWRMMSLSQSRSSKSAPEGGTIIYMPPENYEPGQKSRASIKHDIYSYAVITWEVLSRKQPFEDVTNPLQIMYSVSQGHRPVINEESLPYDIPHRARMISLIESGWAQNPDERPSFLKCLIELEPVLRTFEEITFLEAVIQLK
SMILES,"IC50 [1, 3]",IC50 [2],IC50 [1]
"COc1cc2ncc(-c3ccc(N)cn3)n2cc1S(=O)(=O)C(C)(C)C [Example 71, 6-(6-(tert-butylsulfonyl)-7-methoxyimidazo[1,2-a]pyridin-3-yl)pyridin-3-amine]",> 20 nM,> 1000 nM,
"COc1cn2ncc(-c3ccc(N)nc3F)c2cc1S(=O)(=O)C(C)(C)C [Example 72, 5-(5-(tert-butylsulfonyl)-6-methoxypyrazolo[1,5-a]pyridin-3-yl)-6-fluoropyridin-2-amine]",> 20 nM,> 1000 nM,
"COc1cc2ncc(-c3cnc(N)c(F)c3)n2cc1S(=O)(=O)C(C)(C)C [Example 73, 5-(6-(tert-butylsulfonyl)-7-methoxyimidazo[1,2-a]pyridin-3-yl)-3-fluoropyridin-2-amine]",> 20 nM,> 1000 nM,
"COc1cc2ncc(-c3cc(OC)c(N)nc3F)n2cc1S(=O)(=O)C(C)(C)C [Example 74, 5-(6-(tert-butylsulfonyl)-7-methoxyimidazo[1,2-a]pyridin-3-yl)-6-fluoro-3-methoxypyridin-2-amine]",,> 1000 nM,2.5 to 20 nM
"COc1cc2ncc(-c3cc(Cl)c(N)nc3F)n2cc1S(=O)(=O)C(C)(C)C [Example 75, 5-(6-(tert-butylsulfonyl)-7-methoxyimidazo[1,2-a]pyridin-3-yl)-3-chloro-6-fluoropyridin-2-amine]",,50 to 250 nM,2.5 to 20 nM
"COc1cc2ncc(-c3ccc(N)c(OC)c3F)n2cc1S(=O)(=O)C(C)(C)C [Example 76, 4-(6-(tert-butylsulfonyl)-7-methoxyimidazo[1,2-a]pyridin-3-yl)-3-fluoro-2-methoxyaniline]",> 20 nM,> 1000 nM,
"COc1cc2ncc(-c3ccc(N(C)C)nc3F)n2cc1S(=O)(=O)C(C)(C)C [Example 77, 5-(6-(tert-butylsulfonyl)-7-methoxyimidazo[1,2-a]pyridin-3-yl)-6-fluoro-N,N-dimethylpyridin-2-amine]",> 20 nM,> 1000 nM,
"COc1cc(N)ncc1-c1cnc2cc(OC)c(S(=O)(=O)C(C)(C)C)cn12 [Example 78, 5-(6-(tert-butylsulfonyl)-7-methoxyimidazo[1,2-a]pyridin-3-yl)-4-methoxypyridin-2-amine]",> 20 nM,> 1000 nM,
"COc1cc2ncc(-c3ccc(N)nc3OC)n2cc1S(=O)(=O)C(C)(C)C [Example 79, 5-(6-(tert-butylsulfonyl)-7-methoxyimidazo[1,2-a]pyridin-3-yl)-6-methoxypyridin-2-amine]",> 20 nM,> 1000 nM,
"COc1cc2ncc(-c3cc(C#N)c(N)cc3F)n2cc1S(=O)(=O)C(C)(C)C [Example 80, 2-amino-5-(6-(tert-butylsulfonyl)-7-methoxyimidazo[1,2-a]pyridin-3-yl)-4-fluorobenzonitrile]",,250 to 1000 nM,2.5 to 20 nM
"COc1cc2ncc(-c3cc(F)c(N)cc3F)n2cc1S(=O)(=O)C(C)(C)C [Example 81, 4-(6-(tert-butylsulfonyl)-7-methoxyimidazo[1,2-a]pyridin-3-yl)-2,5-difluoroaniline]",,250 to 1000 nM,2.5 to 20 nM
"COc1cc2ncc(-c3cc(F)c(N)nc3F)n2cc1S(=O)(=O)C(C)(C)C [Example 82, 5-(6-(tert-butylsulfonyl)-7-methoxyimidazo[1,2-a]pyridin-3-yl)-3,6-difluoropyridin-2-amine]",,250 to 1000 nM,2.5 to 20 nM
"COc1cc2ncc(-c3ccc(N)c(F)c3F)n2cc1S(=O)(=O)C(C)(C)C [Example 83, 4-(6-(tert-butylsulfonyl)-7-methoxyimidazo[1,2-a]pyridin-3-yl)-2,3-difluoroaniline]",> 20 nM,> 1000 nM,
"COc1cc2ncc(-c3cnc(N)c(C4CC4)c3)n2cc1S(=O)(=O)C(C)(C)C [Example 84, 5-(6-(tert-butylsulfonyl)-7-methoxyimidazo[1,2-a]pyridin-3-yl)-3-cyclopropylpyridin-2-amine]",> 20 nM,> 1000 nM,
"COc1cc2ncc(-c3ccc(N)c(Cl)c3)n2cc1S(=O)(=O)C(C)(C)C [Example 85, 4-(6-(tert-butylsulfonyl)-7-methoxyimidazo[1,2-a]pyridin-3-yl)-2-chloroaniline]",,250 to 1000 nM,2.5 to 20 nM
"COc1cc2ncc(-c3ccc(N)c(Cl)c3F)n2cc1S(=O)(=O)C(C)(C)C [Example 86, 4-(6-(tert-butylsulfonyl)-7-methoxyimidazo[1,2-a]pyridin-3-yl)-2-chloro-3-fluoroaniline]",,> 1000 nM,2.5 to 20 nM
"COc1cc(-c2cnc3cc(OC)c(S(=O)(=O)C(C)(C)C)cn23)ccc1N [Example 87, 4-(6-(tert-butylsulfonyl)-7-methoxyimidazo[1,2-a]pyridin-3-yl)-2-methoxyaniline]",,> 1000 nM,2.5 to 20 nM
"COc1cc2ncc(-c3cnc(N)c(OC(F)(F)F)c3)n2cc1S(=O)(=O)C(C)(C)C [Example 88, 5-(6-(tert-butylsulfonyl)-7-methoxyimidazo[1,2-a]pyridin-3-yl)-3-(trifluoromethoxy) pyridin-2-amine]",> 20 nM,> 1000 nM,
"COc1cc2ncc(-c3ccc(N)c(OC(F)(F)F)c3)n2cc1S(=O)(=O)C(C)(C)C [Example 89, 4-(6-(tert-butylsulfonyl)-7-methoxyimidazo[1,2-a]pyridin-3-yl)-2-(trifluoromethoxy)aniline]",,> 1000 nM,2.5 to 20 nM
"COc1cc(-c2cnc3cc(OC)c(S(=O)(=O)C(C)(C)C)cn23)c(F)cc1N [Example 90, 4-(6-(tert-butylsulfonyl)-7-methoxyimidazo[1,2-a]pyridin-3-yl)-5-fluoro-2-methoxyaniline]",,250 to 1000 nM,2.5 to 20 nM
"COc1cc2ncc(-c3ccc(N)c(C#N)c3F)n2cc1S(=O)(=O)C(C)(C)C [Example 91, 6-amino-3-(6-(tert-butylsulfonyl)-7-methoxyimidazo[1,2-a]pyridin-3-yl)-2-fluorobenzonitrile]",,> 1000 nM,2.5 to 20 nM
"COc1cc2ncc(-c3cnc(N)c(CO)c3)n2cc1S(=O)(=O)C(C)(C)C [Example 92, (2-amino-5-(6-(tert-butylsulfonyl)-7-methoxyimidazo[1,2-a]pyridin-3-yl)pyridin-3-yl)methanol]",> 20 nM,> 1000 nM,
"COc1cc2ncc(-c3cnc(N)nc3)n2cc1S(=O)(=O)C(C)(C)C [Example 93, 5-(6-(tert-butylsulfonyl)-7-methoxyimidazo[1,2-a]pyridin-3-yl)pyrimidin-2-amine]",> 20 nM,> 1000 nM,
"CNc1ncc(-c2cnc3cc(OC)c(S(=O)(=O)C(C)(C)C)cn23)cc1F [Example 94, 5-(6-(tert-butylsulfonyl)-7-methoxyimidazo[1,2-a]pyridin-3-yl)-3-fluoro-N-methylpyridin-2-amine]",> 20 nM,> 1000 nM,
"COc1cn2ncc(-c3ccc(N)c(C#N)c3)c2cc1S(=O)(=O)C(C)(C)C [Example 95, 2-amino-5-(5-(tert-butylsulfonyl)-6-methoxypyrazolo[1,5-a]pyridin-3-yl)benzonitrile]",,250 to 1000 nM,2.5 to 20 nM
"COc1cc2ncc(-c3cc(C)c(N)nc3F)n2cc1S(=O)(=O)C(C)(C)C [Example 96, 5-(6-(tert-butylsulfonyl)-7-methoxyimidazo[1,2-a]pyridin-3-yl)-6-fluoro-3-methylpyridin-2-amine]",,250 to 1000 nM,2.5 to 20 nM
